# Assay results reported in publication PMC10932281, “A Combination of β-Aescin and Newly Synthesized Alkylamidobetaines as Modern Components Eradicating the Biofilms of Multidrug-Resistant Clinical Strains of Candida glabrata” (International Journal of Molecular Sciences, 2024).
# Read-outs that look alike come from different tables or passages of the source.
# Experiments:
# [1] = test system: biofilms of C. glabrata DSM 1226 and two clinical isolates; design: method as in PMID 37508306; conditions: combination with β-AE; biofilms of three strains; ref [12]; cited from earlier work
# C. glabrata ATCC 90030 [2] = experiment: MIC90/MFC, EUCAST broth microdilution; assay type: cell-based, Candida glabrata; conditions: Nakaseomyces glabratus, ATCC90030, ATCC 90030; for MFC: read-out: MFC; for MIC90: read-out: MIC90
# C. glabrata ATCC 90030 [3] = experiment: FICI checkerboard, β-aescin with antifungal drugs; assay type: cell-based, Candida glabrata; conditions: combination with β-aescin
# [4] = test system: C. glabrata 2586 clinical strain; experiment: MIC90/MFC, EUCAST broth microdilution; assay type: cell-based, Candida glabrata; conditions: Nakaseomyces glabratus; for MFC: read-out: MFC; for MIC90: read-out: MIC90
# C. glabrata ATCC 90030 [5] = experiment: Interaction of AABs (3 µM) with antifungal agents, modified checkerboard; assay type: cell-based, Candida glabrata; conditions: for Multiplicity factor (MF) with C9: C9 3 µM, |MF| = MIC90 alone/MIC90 with AAB; for MIC90 of antimycotic combined with C9: C9 at constant 3 µM; for MIC90 of antimycotic combined with C9 / MIC90 of antimycotic combined with C11 / MIC90 of antimycotic combined with C13 / MIC90 of antimycotic combined with C15: dilutions in µg/mL; for Multiplicity factor (MF) with C11: C11 3 µM; for MIC90 of antimycotic combined with C11: C11 at constant 3 µM; for Multiplicity factor (MF) with C13: C13 3 µM; for MIC90 of antimycotic combined with C13: C13 at constant 3 µM; for Multiplicity factor (MF) with C15: C15 3 µM; for MIC90 of antimycotic combined with C15: C15 at constant 3 µM
# [6] = test system: C. glabrata strains (ATCC 90030, 2586, 2853); experiment: Interaction of AABs with antifungal agents, statements for all tested strains together; assay type: cell-based, Candida glabrata; conditions: all of the tested C. glabrata strains; AABs 3 µM
# C. glabrata 2853 [7] = experiment: FICI checkerboard, β-aescin with antifungal drugs; assay type: cell-based, Candida glabrata; conditions: for FICI: combination with β-aescin
# C. glabrata 2586 [8] = experiment: Interaction of AABs (3 µM) with antifungal agents, modified checkerboard; assay type: cell-based, Candida glabrata; conditions: for Multiplicity factor (MF) with C9: C9 3 µM; for MIC90 of antimycotic combined with C9: C9 at constant 3 µM; for MIC90 of antimycotic combined with C9 / MIC90 of antimycotic combined with C11 / MIC90 of antimycotic combined with C13 / MIC90 of antimycotic combined with C15: dilutions in µg/mL; for Multiplicity factor (MF) with C11: C11 3 µM; for MIC90 of antimycotic combined with C11: C11 at constant 3 µM; for MIC90 of antimycotic combined with C13: C13 at constant 3 µM; for Multiplicity factor (MF) with C15: C15 3 µM; for MIC90 of antimycotic combined with C15: C15 at constant 3 µM
# C. glabrata 2853 [9] = experiment: as above; assay type: cell-based, Candida glabrata; conditions: for Multiplicity factor (MF) with C9: C9 3 µM; for MIC90 of antimycotic combined with C9: C9 at constant 3 µM; for MIC90 of antimycotic combined with C9 / MIC90 of antimycotic combined with C11 / MIC90 of antimycotic combined with C13 / MIC90 of antimycotic combined with C15: dilutions in µg/mL; for Multiplicity factor (MF) with C11: C11 3 µM; for MIC90 of antimycotic combined with C11: C11 at constant 3 µM; for Multiplicity factor (MF) with C13: C13 3 µM; for MIC90 of antimycotic combined with C13: C13 at constant 3 µM; for Multiplicity factor (MF) with C15: C15 3 µM; for MIC90 of antimycotic combined with C15: C15 at constant 3 µM
# [10] = test system: C. glabrata 2853 clinical strain; experiment: MIC90/MFC, EUCAST broth microdilution; assay type: cell-based, Candida glabrata; conditions: Nakaseomyces glabratus; for MFC: read-out: MFC; for MIC90: read-out: MIC90
# C. glabrata 2586 [11] = experiment: FICI checkerboard, β-aescin with antifungal drugs; assay type: cell-based, Candida glabrata; conditions: combination with β-aescin
# [12] = test system: C. glabrata ATCC 90030 and 24 clinical isolates; design: method as in PMID 26092104; conditions: ref [8], cited from earlier work
# C. albicans = test system: C. albicans; design: method as in doi:10.1016/j.carbpol.2003.10.001; conditions: C. albicans among organisms tested; ref [35]; cited from earlier work
# [13] = design: method as in doi:10.1007/BF02673395; conditions: ref [48]; cited from earlier work
Compound,FICI [1],MFC (C. glabrata ATCC 90030 [2]) [µg/mL],MIC90 (C. glabrata ATCC 90030 [2]) [µg/mL],FICI (C. glabrata ATCC 90030 [3]),MFC [4] [µg/mL],MIC90 [4] [µg/mL],Multiplicity factor (MF) with C9 (C. glabrata ATCC 90030 [5]),MIC90 of antimycotic combined with C9 (C. glabrata ATCC 90030 [5]),Multiplicity factor (MF) with C11 (C. glabrata ATCC 90030 [5]),MIC90 of antimycotic combined with C11 (C. glabrata ATCC 90030 [5]),Multiplicity factor (MF) with C13 (C. glabrata ATCC 90030 [5]),MIC90 of antimycotic combined with C13 (C. glabrata ATCC 90030 [5]),Multiplicity factor (MF) with C15 (C. glabrata ATCC 90030 [5]),MIC90 of antimycotic combined with C15 (C. glabrata ATCC 90030 [5]),FICI (C. glabrata 2853 [7]),Multiplicity factor (MF) with C9 (C. glabrata 2586 [8]),MIC90 of antimycotic combined with C9 (C. glabrata 2586 [8]),Multiplicity factor (MF) with C11 (C. glabrata 2586 [8]),MIC90 of antimycotic combined with C11 (C. glabrata 2586 [8]),MIC90 of antimycotic combined with C13 (C. glabrata 2586 [8]),also measured
CCC(C)n1ncn(-c2ccc(N3CCN(c4ccc(OCC5COC(Cn6cncn6)(c6ccc(Cl)cc6Cl)O5)cc4)CC3)cc2)c1=O (centres unmarked) [Itraconazole],≤ 0.5,4100,4100,1.004,4100,4100,1,4096,1,4096,1,4096,1,4096,1.004,1,4096,1,4096,4096,MF with AABs [6]: 1; Multiplicity factor (MF) with C13 (C. glabrata 2586 [8]; C13 3 µM): 1; Multiplicity factor (MF) with C15 (C. glabrata 2586 [8]): 1; MIC90 of antimycotic combined with C15 (C. glabrata 2586 [8]): 4096; Multiplicity factor (MF) with C9 (C. glabrata 2853 [9]): 1; MIC90 of antimycotic combined with C9 (C. glabrata 2853 [9]): 4096; Multiplicity factor (MF) with C11 (C. glabrata 2853 [9]): 1; MIC90 of antimycotic combined with C11 (C. glabrata 2853 [9]): 4096; Multiplicity factor (MF) with C13 (C. glabrata 2853 [9]): 1; MIC90 of antimycotic combined with C13 (C. glabrata 2853 [9]): 4096; Multiplicity factor (MF) with C15 (C. glabrata 2853 [9]): 1; MIC90 of antimycotic combined with C15 (C. glabrata 2853 [9]): 4096; MFC [10]: 4100 µg/mL; MIC90 [10]: 4100 µg/mL; FICI (C. glabrata 2586 [11]): 1.004
CC(=O)N1CCN(c2ccc(OCC3COC(Cn4ccnc4)(c4ccc(Cl)cc4Cl)O3)cc2)CC1 (centres unmarked) [Ketoconazole],≤ 0.5,1020,256,2,1020,512,16 (16),16 (16),16 (16),16 (16),16 (16),16 (16),64,4,0.75,8,64,16,32,16,Multiplicity factor (MF) with C9 (C. glabrata ATCC 90030 [5]; listed as ketoconazole): 16; Multiplicity factor (MF) with C11 (C. glabrata ATCC 90030 [5]; listed as ketoconazole): 16; Multiplicity factor (MF) with C13 (C. glabrata ATCC 90030 [5]; listed as ketoconazole): 16; Type of interaction with β-AE (by FICI) (C. glabrata 2853 [7]): additive; Multiplicity factor (MF) with C15 (C. glabrata 2586 [8]): 64; MIC90 of antimycotic combined with C15 (C. glabrata 2586 [8]): 8; Multiplicity factor (MF) with C9 (C. glabrata 2853 [9]): 1; MIC90 of antimycotic combined with C9 (C. glabrata 2853 [9]): 4; Multiplicity factor (MF) with C11 (C. glabrata 2853 [9]): 1; MIC90 of antimycotic combined with C11 (C. glabrata 2853 [9]): 4; Multiplicity factor (MF) with C13 (C. glabrata 2853 [9]): 2 (2); Multiplicity factor (MF) with C13 (C. glabrata 2853 [9]; listed as ketoconazole): 2; MIC90 of antimycotic combined with C13 (C. glabrata 2853 [9]): 2 (2); Multiplicity factor (MF) with C15 (C. glabrata 2853 [9]): 4; MIC90 of antimycotic combined with C15 (C. glabrata 2853 [9]): 1; MFC [10]: 1020 µg/mL; MIC90 [10]: 4 µg/mL; FICI (C. glabrata 2586 [11]): 1.25
C[C@@H]1[C@H](O)[C@@H](C)/C=C/C=C/CC/C=C/C=C/C=C/C=C/C(O[C@H]2O[C@H](C)[C@@H](O)[C@H](N)[C@@H]2O)CC2O[C@](O)(CC(O)C(O)CCC(O)CC(O)CC(O)CC(=O)O[C@H]1C)CC(O)C2C(=O)O (some centres unmarked) [nystatin],–,–,–,–,–,–,–,–,–,–,–,–,–,–,–,–,–,–,–,–,Fold reduction of MIC ([12]; subinhibitory concentrations of β-AE crystalline): 2–16 fold; Fold reduction of MIC ([12]; subinhibitory concentrations of β-AE sodium): 2–4 fold
C12–C18 alkyl amido propyl dimethylamine betaine [AAPDB],–,–,–,–,–,–,–,–,–,–,–,–,–,–,–,–,–,–,–,–,Antimicrobial activity (C. albicans): active
N-hexadecylamidepropylbetaine,–,–,–,–,–,–,–,–,–,–,–,–,–,–,–,–,–,–,–,–,Krafft point [13]: 16 °C
